Legend:
Assay type in all cases: in vivo
Male ICR mouse [1] = assay: Acetic acid induced writhing analgesia test; conditions: 100 mg/kg oral, 1 h before 0.7% acetic acid; writhing counted 10 min
Protocol: In order to determine the analgesic activity of the inventive extract of the present invention, acetic acid-induced writhing test was performed according to the method disclosed in the literature as follows (Whittle B A, Brit. J. Pharmacol. Chemother., 22, pp 246-253, 1964).
Male ICR mouse (Jung Ang laboratory animal, Japan) weighing from 20 to 25 g was acclimated for several days and each group consists of 10 mice.

Male ICR mouse [2] = assay: Croton oil induced ear oedema; conditions: 100 mg/kg oral; ear thickness 4 hours after 2.5% croton oil
Protocol: In order to determine the anti-inflammatory activity of inventive extract, following test using croton oil-induced ear edema was performed according to method disclosed in the literature (Zhang B et al., Eur. J. Pharmacol., 530(1-2), pp 166-171, 2006).
Male ICR mouse (Jung Ang laboratory animal, Japan) weighing from 20 to 30 g was used as an experimental animal and each group consists of 6 mice. […] After 4 hours, the increased rate of ear thickness was calculated by comparing with that of left ear and the result was shown in Table 4.

Male ICR mouse [3] = assay: Arachidonic acid induced ear edema; conditions: 100 mg/kg oral; ear thickness 1 hour after arachidonic acid
Protocol: In order to determine the anti-inflammatory activity of inventive extract, following test using arachidonic acid-induced ear edema was performed according to method disclosed in the literature (Zhou H et al., Biol. Pharm. Bull., 29(2) pp 253-260, 2006).
Male ICR mouse (Jung Ang laboratory animal, Japan) weighing from 20 to 30 g was used as an experimental animal and each group consists of 10 mice. […] After 1 hour, the increased rate of ear thickness was calculated by comparing with that of left ear and the result was shown in Table 3.

For Cc1ccc(-c2cc(C(F)(F)F)nn2-c2ccc(S(N)(=O)=O)cc2)cc1 [Celecoxib], the “Inhibition of writhing (%)” value (Male ICR mouse [1]) was 61.9%, the “Inhibition rate of edema (%)” value (Male ICR mouse [2]) was 33.12% and the “Inhibition rate of edema (%)” value (Male ICR mouse [3]) was 25.29%.

Source: patent US20080233216A1, “Composition Comprising the Extract of Siegesbeckiae Herba For Preventing and Treating Arthritis and the Use Thereof” (Industry Academic Cooperation Foundation Of Kyunghee …, priority 2006, published 2008)
